This note sets out measurements from patent publication US11034650B2, “Compounds useful for treating a Mannheimia haemolytica or Histophilus somni infection” (Intervet Inc., priority 2016, dated 2021).

Structures are written as SMILES. ≈ marks a conversion by molar mass, not a printed value.

Assay type in all cases: cell-based
Test [1] concerns Pasteurella multocida PM 6391 (ATCC 43137, reference strain). Put plainly: MIC, broth-microdilution (CLSI VET01-A4), strain PM 6391. The conditions noted are these: Pasteurella multocida strain PM 6391, broth-microdilution; unit assumed. As to the method: For example, representative compounds were tested against ***, Mannheimia haemolytica and Pasteurella multocida, using the conventional broth-dilution assay.
The Minimum inhibitory concentrations (MIC) of compounds according to the invention for a number of veterinary bacterial pathogens were determined by the broth-microdilution method according to CLSI document VET01-A4.
Microdilution trays containing a doubling dilution series of the test compound were used for the tests. The MIC results were interpreted according to the CLSI documents VET01-S3. The lowest concentration of compound at which no visible growth (i.e. no turbidity) detected by the unaided eye was recorded as the MIC.
Background: In broth dilution the organism is exposed to a series of concentrations in liquid medium.

Test [2] deals with Mannheimia haemolytica MH 13065 (XB0446-6003.9, BRD field isolate). The experiment in a line: MIC, broth-microdilution (CLSI VET01-A4), strain MH 13065. To be noted: Mannheimia haemolytica strain MH 13065, broth-microdilution; unit assumed. Summed up: (§1)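 Broth microdilution per CLSI VET01-A4, using trays with a doubling dilution series of compound; results interpreted per CLSI VET01-S3. MIC taken as lowest concentration with no turbidity visible to the unaided eye.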

Test [3] relates to Pasteurella multocida PM 10775 (080130003051, BRD field isolate). Put plainly: MIC, broth-microdilution (CLSI VET01-A4), strain PM 10775. To be noted: Pasteurella multocida strain PM 10775, broth-microdilution; unit assumed. Summed up:
as §1

The test system of test [4] is Pasteurella multocida PM 12080 (IV102277-0093, BRD field isolate). The experiment in a line: MIC, broth-microdilution (CLSI VET01-A4), strain PM 12080. To be noted: Pasteurella multocida strain PM 12080, broth-microdilution; unit assumed. In outline:
as §1

The test system of test [5] is Mannheimia haemolytica MH 12587 (1071, BRD field isolate, macrolide-resistance: erm+, E+). The experiment in a line: MIC, broth-microdilution (CLSI VET01-A4), strain MH 12587. The conditions noted are these: Mannheimia haemolytica strain MH 12587, broth-microdilution; unit assumed. Summed up: as §1
The test system of test [6] is Pasteurella multocida PM 6267 (P 2225 (L386), reference strain, mouse infection strain). Put plainly: MIC, broth-microdilution (CLSI VET01-A4), strain PM 6267. To be noted: Pasteurella multocida strain PM 6267, broth-microdilution; unit assumed. Summed up: as §1
Test [7] relates to Mannheimia haemolytica MH 6374 (ATCC 33396, reference strain). Put plainly: MIC, broth-microdilution (CLSI VET01-A4), strain MH 6374. To be noted: Mannheimia haemolytica strain MH 6374, broth-microdilution; unit assumed. In outline: as §1
Test [8] relates to Mannheimia haemolytica MH 10720 (154, BRD field isolate). Put plainly: MIC, broth-microdilution (CLSI VET01-A4), strain MH 10720. To be noted: Mannheimia haemolytica strain MH 10720, broth-microdilution; unit assumed. Summed up:
as §1

Test [9] has as its system Mannheimia haemolytica MH 13093 (XB0472-6014.1, BRD field isolate). The experiment in a line: MIC, broth-microdilution (CLSI VET01-A4), strain MH 13093. To be noted: Mannheimia haemolytica strain MH 13093, broth-microdilution; unit assumed. Summed up:
as §1

Test [10] has as its system Mannheimia haemolytica MH 6357 (M7/2, reference strain, cattle infection strain). The experiment in a line: MIC, broth-microdilution (CLSI VET01-A4), strain MH 6357. The conditions noted are these: Mannheimia haemolytica strain MH 6357, broth-microdilution; unit assumed. In outline: as §1

For `CNCc1ccc(C#Cc2ccc(C(=O)N[C@@H](CO)C(=O)NO)cc2)cc1` [Compound 150], in test [1], the MIC PM 6391 came out at 25 µg/mL (≈ 68 µM). Also, the MIC MH 13065 in [2] was 12.5 µg/mL (≈ 34 µM). For the same compound, in test [3], the MIC PM 10775 is at most 0.1 µg/mL. The compound also registered an MIC PM 12080 in [4] of at most 0.1 µg/mL. This compound showed an MIC MH 12587 in test [5] of 25 µg/mL (≈ 68 µM). The compound further registered an MIC PM 6267 in test [6] of 6.3 µg/mL (≈ 17.1 µM). In [7], this compound registered an MIC MH 6374 of 25 µg/mL (≈ 68 µM). In addition, the MIC MH 10720 in test [8] turned out to be 3.1 µg/mL (≈ 8.44 µM). Further, the MIC MH 13093 in test [9] was found to be 25 µg/mL (≈ 68 µM). In addition, the MIC MH 6357 in test [10] turned out to be 6.3 µg/mL (≈ 17.1 µM).
As to `CCNCc1ccc(C#Cc2ccc(C(=O)N[C@@H](CO)C(=O)NO)cc2)cc1` [Compound 151], in [1], the MIC PM 6391 was 12.5 µg/mL (≈ 32.8 µM). This compound yielded an MIC MH 13065 in test [2] of 12.5 µg/mL (≈ 32.8 µM). Also, the MIC PM 10775 in [3] is at most 0.1 µg/mL. The same compound displayed an MIC PM 12080 in test [4] of 6.3 µg/mL (≈ 16.5 µM). The compound further displayed an MIC MH 12587 in test [5] of 25 µg/mL (≈ 65.5 µM). The MIC PM 6267 in test [6] worked out at 3.1 µg/mL (≈ 8.13 µM). In [7], the MIC MH 6374 worked out at 25 µg/mL (≈ 65.5 µM). In addition, the MIC MH 10720 in [8] turned out to be 3.1 µg/mL (≈ 8.13 µM). The MIC MH 13093 in test [9] turned out to be 25 µg/mL (≈ 65.5 µM). The compound further gave an MIC MH 6357 in test [10] of 6.3 µg/mL (≈ 16.5 µM).
`CCCNCc1ccc(C#Cc2ccc(C(=O)N[C@@H](CO)C(=O)NO)cc2)cc1` [Compound 152] yielded an MIC PM 6391 in [1] of 6.3 µg/mL (≈ 15.9 µM). Moreover, the MIC MH 13065 in test [2] came out at 12.5 µg/mL (≈ 31.6 µM). The compound also returned an MIC PM 10775 in test [3] of 0.2 µg/mL (≈ 0.506 µM). Besides, the MIC PM 12080 in test [4] came to 3.1 µg/mL (≈ 7.84 µM). This compound also yielded an MIC MH 12587 in test [5] of 12.5 µg/mL (≈ 31.6 µM). In test [6], the MIC PM 6267 is 1.6 µg/mL (≈ 4.05 µM). In test [7], this compound gave an MIC MH 6374 of 25 µg/mL (≈ 63.2 µM). The MIC MH 10720 in test [8] worked out at 3.1 µg/mL (≈ 7.84 µM). Also, the MIC MH 13093 in [9] was found to be 12.5 µg/mL (≈ 31.6 µM). In test [10], this compound showed an MIC MH 6357 of 3.1 µg/mL (≈ 7.84 µM).
For `COCCCNCc1ccc(C#Cc2ccc(C(=O)N[C@@H](CO)C(=O)NO)cc2)cc1` [Compound 153], in test [1], the MIC PM 6391 was 6.3 µg/mL (≈ 14.8 µM). This compound yielded an MIC MH 13065 in [2] of 12.5 µg/mL (≈ 29.4 µM). In test [3], the MIC PM 10775 is at most 0.1 µg/mL. For the same compound, the MIC PM 12080 in [4] was determined as 0.8 µg/mL (≈ 1.88 µM). The compound further returned an MIC MH 12587 in test [5] of 25 µg/mL (≈ 58.8 µM). The MIC PM 6267 in test [6] amounted to 1.6 µg/mL (≈ 3.76 µM). The same compound registered an MIC MH 6374 in test [7] of 25 µg/mL (≈ 58.8 µM). The MIC MH 10720 in test [8] was found to be 6.3 µg/mL (≈ 14.8 µM). In addition, the MIC MH 13093 in test [9] worked out at 25 µg/mL (≈ 58.8 µM). In addition, the MIC MH 6357 in test [10] came to 12.5 µg/mL (≈ 29.4 µM).
With `COCCN(C)Cc1ccc(C#Cc2ccc(C(=O)N[C@@H](CO)C(=O)NO)cc2)cc1` [Compound 154], the MIC PM 6391 in test [1] was determined as 1.6 µg/mL (≈ 3.76 µM). The same compound returned an MIC MH 13065 in test [2] of 6.3 µg/mL (≈ 14.8 µM). Also, in test [3], the MIC PM 10775 is at most 0.1 µg/mL. This compound had an MIC PM 12080 in test [4] of 0.8 µg/mL (≈ 1.88 µM). In [5], the MIC MH 12587 stood at 12.5 µg/mL (≈ 29.4 µM). Besides, the MIC PM 6267 in test [6] turned out to be 0.2 µg/mL (≈ 0.47 µM). Further, in [7], the MIC MH 6374 stood at 12.5 µg/mL (≈ 29.4 µM). The same compound registered an MIC MH 10720 in test [8] of 1.6 µg/mL (≈ 3.76 µM). This compound displayed an MIC MH 13093 in test [9] of 6.3 µg/mL (≈ 14.8 µM). Also, the MIC MH 6357 in test [10] was found to be 3.1 µg/mL (≈ 7.29 µM).
As for `CC1CN(Cc2ccc(C#Cc3ccc(C(=O)N[C@@H](CO)C(=O)NO)cc3)cc2)CC(C)O1` (some centres unmarked) [Compound 155], the MIC PM 6391 in test [1] was determined as 0.4 µg/mL (≈ 0.886 µM). This compound came in with an MIC MH 13065 in [2] of 12.5 µg/mL (≈ 27.7 µM). In [3], the MIC PM 10775 is at most 0.1 µg/mL. For the same compound, the MIC PM 12080 in test [4] is 0.4 µg/mL (≈ 0.886 µM). Also, the MIC MH 12587 in test [5] came out at 25 µg/mL (≈ 55.4 µM). In test [6], this compound gave an MIC PM 6267 of at most 0.1 µg/mL. Further, in test [7], the MIC MH 6374 came to 12.5 µg/mL (≈ 27.7 µM). In addition, the MIC MH 10720 in test [8] was 1.6 µg/mL (≈ 3.54 µM). For the same compound, in test [9], the MIC MH 13093 was 25 µg/mL (≈ 55.4 µM). In test [10], this compound registered an MIC MH 6357 of 12.5 µg/mL (≈ 27.7 µM).
For the compound `O=C(N[C@@H](CO)C(=O)NO)c1ccc(C#Cc2ccc(CN3CCCCC3)cc2)cc1` [Compound 156], in test [1], the MIC PM 6391 worked out at 1.6 µg/mL (≈ 3.8 µM). The compound also showed an MIC MH 13065 in test [2] of 12.5 µg/mL (≈ 29.7 µM). In addition, in test [3], the MIC PM 10775 was at most 0.1 µg/mL. This compound also returned an MIC PM 12080 in [4] of 1.6 µg/mL (≈ 3.8 µM). Moreover, the MIC MH 12587 in test [5] came to 12.5 µg/mL (≈ 29.7 µM). In addition, in test [6], the MIC PM 6267 is 0.8 µg/mL (≈ 1.9 µM). Besides, the MIC MH 6374 in test [7] stood at 6.3 µg/mL (≈ 14.9 µM). For the same compound, the MIC MH 10720 in test [8] was found to be 1.6 µg/mL (≈ 3.8 µM). The compound also had an MIC MH 13093 in test [9] of 12.5 µg/mL (≈ 29.7 µM). In addition, the MIC MH 6357 in test [10] came out at 6.3 µg/mL (≈ 14.9 µM).
Compound `O=C(N[C@@H](CO)C(=O)NO)c1ccc(C#Cc2ccc(CNCc3cccnc3)cc2)cc1` [Compound 157] came in with an MIC PM 6391 in test [1] of 0.8 µg/mL (≈ 1.8 µM). The same compound displayed an MIC MH 13065 in test [2] of 3.1 µg/mL (≈ 6.97 µM). In test [3], this compound yielded an MIC PM 10775 of at most 0.1 µg/mL. The MIC PM 12080 in test [4] amounted to 0.8 µg/mL (≈ 1.8 µM). In test [5], this compound had an MIC MH 12587 of 6.3 µg/mL (≈ 14.2 µM). In test [6], this compound showed an MIC PM 6267 of 0.4 µg/mL (≈ 0.9 µM). The same compound yielded an MIC MH 6374 in [7] of 1.6 µg/mL (≈ 3.6 µM). The MIC MH 10720 in [8] came to 0.8 µg/mL (≈ 1.8 µM). For the same compound, in test [9], the MIC MH 13093 came to 6.3 µg/mL (≈ 14.2 µM). Moreover, the MIC MH 6357 in [10] worked out at 1.6 µg/mL (≈ 3.6 µM).
